The target in this assay is human Mnk2a (Homo sapiens (Human), UniProt Q9HBH9). In words: Mnk2a in vitro kinase assay (indirect competitive fluorescence polarization). It counts as biochemical. As to conditions: pre-activated GST-Mnk2a 2.5 nM, 20 μM ATP, 30 μM substrate peptide; read-out: MNK2 IC50. The procedure:
Inhibitory potency of compounds against Mnk1, Mnk2a and other kinases was assessed with assays based on a format known to those skilled in the art as the indirect (competitive) fluorescence polarization. The assay detection system comprises a small fluorophore-labeled phospho-peptide (termed ligand) bound to a phospho-specific antibody. The product generated by the kinase reaction competes with the ligand for antibody binding. Based on the larger molecular volume of the bound ligand, which results in a lower rotation rate in solution, its emitted light has a higher degree of polarization than the one from the free ligand.
In brief, the open reading frames of human Mnk1 and Mnk2a were amplified from cDNA using the forward/reverse primer pairs
(utilized restriction sites underlined), respectively, and cloned into the BamHI and SalI sites of the vector pGEX-4T1 (Amersham, Sweden, cat. no. 27-4580-01). These constructs allow prokaryotic expression of Mnk1 or Mnk2a as fusion protein with a N-terminal glutathione S-transferase (GST) tag, referred to as GST-Mnk1 or GST-Mnk2a. The following expression and purification procedure was identical for GST-Mnk1 and GST-Mnk2a, referring in general to GST-Mnk, when not distinguishing between the two isoforms. Expression of GST-Mnk was in E. coli BL21 (Merck Biosciences, Germany, cat. no. 69449). Cells were grown in LB-Bouillon (Merck, Germany, cat. no. 1.10285) supplemented with 100 μg/ml ampicillin (Sigma, Germany, cat. no. A9518) at 37° C. […] Cells harvested by centrifugation were resuspended in 10 ml lysis buffer (50 mM tris(hydroxymethyl)aminomethane hydrochloride (Tris/HCl, Sigma, Germany, cat. no. T5941) pH 7.5, 300 mM sodium chloride (NaCl, Sigma, Germany, cat. no. S7653), 5% (w/v) glycerol (Sigma, Germany, cat. no. G5516), 3 mM DTT dithiotreitol (DTT, Sigma, Germany, cat. no. D9779)) per gram wet weight cell pellet. Lysates were prepared by disruption of cells with a sonifier and subsequent clearing by centrifugation at 38000 g for 45 min at 4° C.
The lysate was applied to a GSTPrep FF 16/10 column (Amersham, Sweden, cat. no. 17-5234-01) equilibrated with lysis buffer. Removal of unbound material was with 3 column volumes (CV) lysis buffer. Elution was with 2 CV of elution buffer (50 mM Tris/HCl pH 7.5, 300 mM NaCl, 5% (w/v) glycerol, 20 mM glutathione (Sigma, Germany, cat. no. G4251)). Peak fractions were pooled and the protein transferred into storage buffer (50 mM Tris/HCl pH 7.5, 200 mM NaCl, 0.1 mM ethylene glycol[…] bis(2-aminoethylether)-N,N,N′,N′-tetraacetic acid (EGTA, Aldrich, Germany, cat. no. 23, 453-2), 1 mM DTT, 10% (w/v) glycerol, 0.5 M sucrose (Sigma, Germany, cat. no. S0389) by gel filtration on a PD10 desalting column (Amersham, Sweden, cat. no. 17-0851-01). Aliquots were shock frozen in liquid nitrogen and stored at −80° C.
Activation of Mnk1 and Mnk2a was at a concentration of 2.5 μM of either purified GST-Mnk1 or GST-Mnk2a by incubation with 150 nM pre-activated NHis-ERK2 (see ERK2 assay for preparation) and 50 μM adenosine triphosphate (ATP, Sigma, cat. no. A2699) in a buffer comprising 20 mM N-(2-hydroxyethyl)piperazine-N′-(2-ethanesulfonic acid) (HEPES, Fluka, Germany, cat. no 54459)/potassium hydroxide (KOH, Roth, Germany, cat. no 6751.1) pH 7.4, 10 mM magnesium chloride (MgCl2, Sigma, Germany, cat. no. M2670), 0.25 mM DTT, 0.05% (w/v) polyoxyethylene 20 stearylether (Brij 78, Sigma, Germany, cat. no. P4019) (HMDB buffer) for 45 min at 30° C. After the incubation, the preparation was aliquoted into single-use samples, shock frozen in liquid nitrogen, stored at −80° C. and utilized for Mnk1 or Mnk2a kinase assays as detailed below.
The serine residue phosphorylated by Mnk kinases is underlined.
Background: Fluorescence polarisation rises when a labelled molecule tumbles more slowly, as on binding a larger partner.
human Mnk2a, sequence (Q9HBH9 whole entry): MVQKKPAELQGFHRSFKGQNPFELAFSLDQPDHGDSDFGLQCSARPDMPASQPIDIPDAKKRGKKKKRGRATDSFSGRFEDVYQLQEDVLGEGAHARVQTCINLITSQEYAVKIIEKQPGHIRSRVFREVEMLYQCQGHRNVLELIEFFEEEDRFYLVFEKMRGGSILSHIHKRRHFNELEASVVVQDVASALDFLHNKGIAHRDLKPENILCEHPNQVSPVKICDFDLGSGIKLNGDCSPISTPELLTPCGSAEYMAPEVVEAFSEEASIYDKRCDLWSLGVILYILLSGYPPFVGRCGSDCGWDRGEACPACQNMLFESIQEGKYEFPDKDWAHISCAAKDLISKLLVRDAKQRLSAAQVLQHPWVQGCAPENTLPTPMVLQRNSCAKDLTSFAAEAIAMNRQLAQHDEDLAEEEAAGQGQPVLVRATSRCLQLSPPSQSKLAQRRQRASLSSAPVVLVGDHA
Broadly, the IC50 is the concentration that inhibits the measured activity by half. Turning to `Cc1c(C(=O)NCCCN2CCCC2)sc2ncnc(Nc3ccc(F)cc3OC(C)CC(F)(F)F)c12` (centres unmarked) [Compound 32-42], the half-inhibitory concentration (IC50) turned out to be 12 nM. With `Cc1c(C(=O)NCCCN(C)C)sc2ncnc(Nc3cccnc3OC(C)C)c12` [Compound 36, N-(3-(Dimethylamino)propyl)-4-(2-isopropoxypyridin-3-ylamino)-5-methyl-thieno[2,3-d]pyrimidine-6-carboxamide] the figure was 29 nM. With `CCNC(=O)C(C)Oc1cc(F)ccc1Nc1ncnc2sc(C(=O)O)c(C)c12` (centres unmarked) [Compound 39, 4-[2-(1-Ethylcarbamoyl-ethoxy)-4-fluoro-phenylamino]-5-methyl-thieno[2,3-d]pyrimidine-6-carboxylic acid] the figure was 19 nM. To `CNC(=O)c1sc2ncnc(Nc3ccc(F)cc3OC(CF)CF)c2c1C` [Compound 23-4, 4-(2-(1,3-difluoro-propan-2-yloxy)-4-fluorophenylamino)-N,5-dimethylthieno [2,3d]pyrimidine-6-carboxamide] belongs 8 nM; to `CNC(=O)c1sc2ncnc(Nc3ccc(F)cc3OC(C)CNC(=O)OC(C)(C)C)c2c1C` (centres unmarked) [Compound 1-3, tert-Butyl 2-(5-fluoro-2-(5-methyl-6-(methylcarbamoyl)thieno[2,3-d]pyrimidin-4-ylamino)phenoxy)propylcarbamate], 342 nM; to `Cc1c(C(=O)NC2CCN(C)CC2)sc2ncnc(Nc3ccc(C#N)cc3OC(CF)CF)c12` [Compound 50, 4-(4-Cyano-2-(2-fluoro-1-fluoromethyl-ethoxy)-phenylamino]-5-methyl-thieno[2,3-d]pyrimidine-6-carboxylic acid (1-methyl-piperidin-4-yl)-amide], 13 nM. Consider `Cc1c(C(=O)O)sc2ncnc(Nc3cccnc3OC(C)CCNS(C)(=O)=O)c12` (centres unmarked) [Compound 44, 4-[2-(3-Methanesulfonylamino-1-methyl-propoxy)-pyridin-3-ylamino]-5-methyl-thieno[2,3-d]pyrimidine-6-carboxylic acid], for which the concentration for half-maximal inhibition (IC50) worked out at 24 nM. With `CNC(=O)CNC(=O)c1sc2ncnc(Nc3cccnc3OC(C)C)c2c1C` [Compound 36-7, 4-(2-Isopropoxypyridin-3ylamino)-5-methyl-N-(2-(methylamino)-2-oxoethyl)thieno[2,3-d]pyrimidine-6-carboxamide] the figure was 27 nM; with `Cc1c(C(=O)NCCCN2CCCC2)sc2ncnc(Nc3cccnc3OC(C)C)c12` [Compound 36-1, 4-(2-Isopropoxypyridin-3-ylamino)-5-methyl-N-(3-(pyrrolidin-1-yl)propyl)thieno[2,3-d]pyrimidine-6-carboxamide], 35 nM; with `Cc1c(C(=O)NCCCN(C)C)sc2ncnc(Nc3ccc(F)cc3OC(C)CNS(C)(=O)=O)c12` (centres unmarked) [Compound 3-3], 18 nM. Take `CCNC(=O)C(C)Oc1cc(F)ccc1Nc1ncnc2sc(C(=O)NCCCN(C)C)c(C)c12` (centres unmarked) [Compound 40, 4-[2-(1-Ethylcarbamoyl-ethoxy)-4-fluoro-phenylamino]-5-methyl-thieno[2,3-d]pyrimidine-6-carboxylic acid (3-dimethylamino-propyl)-amide]: the half-maximal inhibitory concentration (IC50) amounted to 20 nM.

As for `Cc1c(C(=O)O)sc2ncnc(Nc3cccnc3OC(C)C(F)(F)F)c12` (centres unmarked) [Compound 21-2, 5-Methyl-4-(2-(1,1,1-trifluoropropan-2-yloxy)pyridin-3-ylamino)thieno[2,3-d]pyrimidine-6-carboxylic acid], the IC50 came to 15 nM. With `Cc1c(C(=O)NCC#CCN(C)C)sc2ncnc(Nc3cccnc3OC(C)C(F)(F)F)c12` (centres unmarked) [Compound 21-7, 5-Methyl-4-[2-(2,2,2-trifluoro-1-methyl-ethoxy)-pyridin-3-ylamino]-thieno[2,3-d]pyrimidine-6-carboxylic acid (4-dimethylamino-but-2-ynyl)-amide] the figure was 24 nM; with `COC(=O)c1sc2ncnc(Nc3ccc(F)cc3OC(C)C(=O)O)c2c1C` (centres unmarked) [Compound 55, 4-[2-(1-Carboxy-ethoxy)-4-fluoro-phenylamino]-5-methyl-thieno[2,3-d]pyrimidine-6-carboxylic acid methyl ester], 5400 nM; with `Cc1c(C(=O)NCCO)sc2ncnc(Nc3ccc(F)cc3OC(C)CF)c12` (centres unmarked) [Compound 32-27], 7 nM.

In the case of `CCNC(=O)C(C)Oc1cc(F)ccc1Nc1ncnc2sc(C(=O)OC)c(C)c12` (centres unmarked) [Compound 61, 4-[2-(1-Ethylcarbamoyl-ethoxy)-4-fluoro-phenylamino}-5-methylthieno[2,3d]pyrimidine-6-carboxylic acid methyl ester], the IC50 was found to be 77 nM. With `COC(=O)c1sc2ncnc(Nc3ccc(F)cc3OC(C)CCNC(=O)C(C)C)c2c1C` (centres unmarked) [Compound 13-3, Methyl 4-(4-fluoro-2-(4-isobutyramido-butan-2-yloxy)-phenylamino)-5-methylthieno[2,3-d]pyrimidine-6-carboxylate] the figure was 677 nM; with `Cc1c(C(=O)NCCCN(C)C)sc2ncnc(Nc3ccc(F)cc3OCC3CC3(F)F)c12` (centres unmarked) [Compound 32-22], 36 nM. With `Cc1c(C(=O)NCCO)sc2ncnc(Nc3ccc(F)cc3OC(C)C(=O)NCCN)c12` (centres unmarked) [Compound 59, 4-{2-[1-(2-Amino-ethylcarbamoyl)-ethoxy]-4-fluoro-phenylamino}-5-methyl-thieno[2,3-d]pyrimidine-6-carboxylic acid (2-hydroxy-ethyl)amide] the figure was 29 nM; with `Cc1c(C(=O)NCCCN(C)C)sc2ncnc(Nc3ccc(F)cc3OC(C)CNC(=O)OC(C)(C)C)c12` (centres unmarked) [Compound 1-4, tert-Butyl 2-(2-(6-(3-(dimethymino)propyl-carbamoyl)-5-methyl-thieno[2,3-d]pyrimidin-4-ylamino)-5-fluoro-phenoxy)propyl-carbamate], 294 nM.

`Cc1c(C(=O)NCCO)sc2ncnc(Nc3cccnc3OC(C)CCN)c12` (centres unmarked) [Compound 42, 4-[2-(3-Amino-1-methyl-propoxy)-3pyridin-3-ylamino]-5-methyl-thieno[2,3-d]pyrimidine-6-carboxylic acid (2-hydroxy-ethyl)-amide]: the half-maximal inhibitory concentration (IC50) came to 70 nM.

For `Cc1c(C(=O)NCCCN2CCCC2)sc2ncnc(Nc3ccc(F)cc3OC(C)CF)c12` (centres unmarked) [Compound 32-44], the IC50 worked out at 6 nM. To `Cc1c(C(=O)NC2CCN(C)CC2)sc2ncnc(Nc3cccnc3OC(C)C(F)(F)F)c12` (centres unmarked) [Compound 21-4, 5-methyl-N-(1-methylpiperidin-4-yl)-4-(2-(1,1,1-trifluoropropan-2-yloxy)pyridin-3-ylamino)thieno[2,3-d]pyrrimidine-6-carboxamide] belongs 54 nM. In the case of `COC(=O)c1sc2ncnc(Nc3ccc(F)cc3OC(C)C(=O)NCCN(C)C)c2c1C` (centres unmarked) [Compound 62, 4-{2-[1-(2-Dimethylamino-ethylcabamoyl)-ethoxy]-4-fluoro-phenylamino}-5-methyl-thieno[2,3-d]pyrimidine-6-carboxylic acid methyl ester], the half-maximal inhibitory concentration (IC50) turned out to be 267 nM. With `Cc1c(C(=O)NCCO)sc2ncnc(Nc3cccnc3OC(C)C)c12` [Compound 36-12, N-(2-Hydroxyethyl)-4-(2-isopropoxypyridin-3ylamino)-5-methylthieno[2,3-d]pyrimidine-6-carboxamide] the figure was 31 nM; with `COC(=O)c1sc2ncnc(Nc3ccc(F)cc3OC(C)C(=O)NCCN)c2c1C` (centres unmarked) [Compound 58, 4-{2-[1-(2-Amino-ethylcarbamoyl)-ethoxyl]-4-fluoro-phenylamino}-5-methyl-thieno[2,3-d]pyrimidine-6-carboxylic acid methyl ester], 119 nM.

The record behind these values is patent US8853193B2, “Thienopyrimidines containing a substituted alkyl group for pharmaceutical compositions” (Boehringer Ingelheim International GmbH, priority 2010, dated 2014).
